Source: patent US8153809B2, “Dihydropyridone ureas as P2X7 modulators” (Roche Palo Alto LLC, priority 2008, dated 2012)

biological target: T1, P2X7 (UniProt Q99572); assay: pIC50 values for P2X7 (Table 1); assay type: cell-based
T1 sequence (Q99572 1-595): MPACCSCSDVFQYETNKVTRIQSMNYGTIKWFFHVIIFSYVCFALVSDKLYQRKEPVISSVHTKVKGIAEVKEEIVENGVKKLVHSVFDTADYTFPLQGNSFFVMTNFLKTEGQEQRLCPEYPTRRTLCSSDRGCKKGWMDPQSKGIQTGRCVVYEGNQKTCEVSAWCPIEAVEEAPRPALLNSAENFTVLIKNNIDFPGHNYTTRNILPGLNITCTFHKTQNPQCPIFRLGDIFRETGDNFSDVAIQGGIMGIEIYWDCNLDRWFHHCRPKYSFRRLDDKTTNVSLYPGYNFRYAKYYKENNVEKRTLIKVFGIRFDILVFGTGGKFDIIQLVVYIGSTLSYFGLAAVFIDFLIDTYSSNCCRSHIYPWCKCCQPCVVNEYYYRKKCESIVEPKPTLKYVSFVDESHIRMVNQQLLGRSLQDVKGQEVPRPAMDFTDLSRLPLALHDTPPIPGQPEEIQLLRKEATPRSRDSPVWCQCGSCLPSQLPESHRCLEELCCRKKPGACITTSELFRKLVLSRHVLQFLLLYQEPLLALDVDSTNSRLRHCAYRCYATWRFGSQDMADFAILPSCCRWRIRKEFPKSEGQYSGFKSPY
Description: Intracellular Calcium Flux (FLIPR) Assay
Compound and Reagent Preparation
Stock solutions of compounds were prepared from powders as a 10 mM DMSO stock solution. These solutions were stored at RT during the two week period of these experiments to prevent freeze-thaw of the DMSO stocks. The DMSO stocks were added to the appropriate assay buffer at a concentration of 10 μM, and then diluted serially to the final concentrations that were tested. […] The aqueous solutions of compounds as well as ATP (Sigma A7699) and BzATP (Sigma B6396) were prepared fresh for each day of experiment.
1321N1 cells stably expressing the full length human P2X7 gene (1321N1-hP2X7) and HEK293 cells stably expressing the full length rat P2X7 gene (HEK293-rP2X7) were obtained from the Roche Cell Culture Facility. 1321N1-hP2X7 cells were grown in Dulbecco's Modified Eagle's Medium (DMEM) high glucose supplemented with 10% FBS and 250 μg/mL G418. HEK293-rP2X7 cells were grown in DMEM/F-12 supplemented with 10% FBS, 1 mM CaCl2, 2 mM MgCl2, 2 mM L-Glutamine and 500 μg/ml G418. Cells were split such that they never became >70% confluent.
Intracellular Calcium Flux (FLIPR)
On the day prior to the experiment, 1321N1-hP2X7 or HEK293-rP2X7 cells were released into suspension with calcium-free PBS+Versene and washed by centrifugation with calcium-free PBS to remove the Versene.
On the day of the experiment, plates were washed with FLIPR buffer (calcium- and magnesium-free Hank's Balanced Salt Solution (HBSS) supplemented with 10 mM Hepes, 2.5 mM probenecid and 2 mM calcium chloride) using a BIO-TEK 96 channel plate washer and incubated with […] fluo-3 dye at 37° C. for one hr. The dye was then removed by plate washing and the cells were allowed to equilibrate for 20 min at room temperature with antagonist or vehicle (FLIPR buffer). Agonist (100 μM BzATP final concentration for hP2X7; 5 μM BzATP final concentration or rP2X7) was added online with the FLIPR and fluorescence measurements made at 1 sec intervals for 60 sec followed by 3 sec intervals for a further 4 min (5 min total). A final addition of 5 μM ionomycin was made and the maximal BzATP-evoked fluorescence normalized to the maximal ionomycin-evoked fluorescence.

Q: COc1ccc(C)c(NC(=O)N2C=CC(=O)C[C@H]2c2cccc(F)c2)c1 [Compound 53, (S)-2-(3-Fluoro-phenyl)-4-oxo-3,4-dihydro-2H-pyridine-1-carboxylic acid (5-methoxy-2-methyl-phenyl)-amide] was tested. Which pIC50 did it give?
A: Its pIC50 is 8.01.

Q: For CS(=O)(=O)CCCOc1cc(NC(=O)N2C=CC(=O)C[C@H]2c2ccc(F)cc2)c(Br)cc1Cl [Compound 54, (S)-2-(4-Fluoro-phenyl)-4-oxo-3,4-dihydro-2H-pyridine-1-carboxylic acid [2-bromo-4-chloro-5-(3-methanesulfonyl-propoxy)-phenyl]-amide], which pIC50 is on record?
A: Its pIC50 is 6.38.

Q: For COc1cc(NC(=O)N2C=CC(=O)C[C@H]2c2ccc(F)cc2)c(Br)cc1C(=O)OC(C)(C)C [Compound 55, 5-Bromo-4-{[(S)-2-(4-fluoro-phenyl)-4-oxo-3,4-dihydro-2H-pyridine-1-carbonyl]-amino}-2-methoxy-benzoic acid tert-butyl ester], which pIC50 is on record?
A: The pIC50 was 5.845.

Q: For COc1ccc(S(C)(=O)=O)cc1NC(=O)N1C=CC(=O)CC1c1ccc(F)cc1 (stereo not shown) [Compound 56, 2-(4-Fluoro-phenyl)-4-oxo-3,4-dihydro-2H-pyridine-1-carboxylic acid (5-methanesulfonyl-2-methoxy-phenyl)-amide], which pIC50 is on record?
A: Its pIC50 is 5.11.

Q: CC(O)c1cc(NC(=O)N2C=CC(=O)C[C@H]2c2ccc(F)cc2)c(Br)cc1Cl (stereo partly drawn) [Compound 57, (S)-2-(4-Fluoro-phenyl)-4-oxo-3,4-dihydro-2H-pyridine-1-carboxylic acid [2-bromo-4-chloro-5-(1-hydroxy-ethyl)-phenyl]-amide] was tested. Which pIC50 did it give?
A: The pIC50 was 7.42.

Q: With Cc1cc(F)c(NC(=O)N2C=CC(=O)C[C@H]2c2cccc(F)c2)cc1OCCO [Compound 58, (S)-2-(3-Fluoro-phenyl)-4-oxo-3,4-dihydro-2H-pyridine-1-carboxylic acid [2-fluoro-5-(2-hydroxy-ethoxy)-4-methyl-phenyl]-amide] as the compound, how does the pIC50 read?
A: The pIC50 was 6.43.

Q: Which pIC50 does the source give for Cc1cc(F)c(NC(=O)N2C=CC(=O)C[C@H]2c2ccc(F)cc2)cc1OCCO [Compound 59, (S)-2-(4-Fluoro-phenyl)-4-oxo-3,4-dihydro-2H-pyridine-1-carboxylic acid [2-fluoro-5-(2-hydroxy-ethoxy)-4-methyl-phenyl]-amide] here?
A: The pIC50 was 6.62.

Q: With COc1cc(NC(=O)N2C=CC(=O)C[C@H]2c2ccc(F)cc2)c(Br)cc1C(N)=O [Compound 60, (S)-2-(4-Fluoro-phenyl)-4-oxo-3,4-dihydro-2H-pyridine-1-carboxylic acid (2-bromo-4-carbamoyl-5-methoxy-phenyl)-amide] as the compound, how does the pIC50 read?
A: The pIC50 was 5.78.

Q: O=C1C=CN(C(=O)Nc2cc3c(cc2Br)OC(F)(F)O3)[C@H](c2ccc(F)cc2)C1 [Compound 61, (S)-2-(4-Fluoro-phenyl)-4-oxo-3,4-dihydro-2H-pyridine-1-carboxylic acid (6-bromo-2,2-difluoro-benzo[1,3]dioxol-5-yl)-amide] was tested. Which pIC50 did it give?
A: The pIC50 was 6.365.

Q: How did the pIC50 turn out when O=C1C=CN(C(=O)Nc2c(F)cccc2F)C(c2ccc(F)cc2)C1 (stereo not shown) [Compound 62, 2-(4-Fluoro-phenyl)-4-oxo-3,4-dihydro-2H-pyridine-1-carboxylic acid (2,6-difluoro-phenyl)-amide] was run?
A: Its pIC50 is 5.51.

Q: COc1cc(NC(=O)N2C=CC(=O)C[C@H]2c2ccc(F)cc2)c(Br)cc1C#N [Compound 63, (S)-2-(4-Fluoro-phenyl)-4-oxo-3,4-dihydro-2H-pyridine-1-carboxylic acid (2-bromo-4-cyano-5-methoxy-phenyl)-amide] was tested. Which pIC50 did it give?
A: Its pIC50 is 6.74.

Q: For O=C1C=CN(C(=O)NC23CC4CC(CC(C4)C2)C3)C(c2ccc(F)cc2)C1 (stereo not shown) [Compound 64, 2-(4-Fluoro-phenyl)-4-oxo-3,4-dihydro-2H-pyridine-1-carboxylic acid adamantan-1-ylamide], which pIC50 is on record?
A: The pIC50 was 5.98.

Q: How did the pIC50 turn out when COc1ccc(OC)c(NC(=O)N2C=CC(=O)CC2c2ccc(F)cc2)c1 (stereo not shown) [Compound 65, 2-(4-Fluoro-phenyl)-4-oxo-3,4-dihydro-2H-pyridine-1-carboxylic acid (2,5-dimethoxy-phenyl)-amide] was run?
A: Its pIC50 is 6.23.

Q: With COC(=O)c1cccc(NC(=O)N2C=CC(=O)CC2c2ccc(F)cc2)c1C (stereo not shown) [Compound 66, 3-{[2-(4-Fluoro-phenyl)-4-oxo-3,4-dihydro-2H-pyridine-1-carbonyl]-amino}-2-methyl benzoic acid methyl ester] as the compound, how does the pIC50 read?
A: The pIC50 was 6.8.

Q: Which pIC50 does the source give for COc1cccc(NC(=O)N2C=CC(=O)CC2c2ccc(F)cc2)c1 (stereo not shown) [Compound 67, 2-(4-Fluoro-phenyl)-4-oxo-3,4-dihydro-2H-pyridine-1-carboxylic acid (3-methoxy-phenyl)-amide] here?
A: Its pIC50 is 6.31.

Q: COc1ccc(NC(=O)N2C=CC(=O)CC2c2ccc(F)cc2)c(OC)c1 (stereo not shown) [Compound 69, 2-(4-Fluoro-phenyl)-4-oxo-3,4-dihydro-2H-pyridine-1-carboxylic acid (2,4-dimethoxy-phenyl)-amide] was tested. Which pIC50 did it give?
A: Its pIC50 is 6.07.

Q: How did the pIC50 turn out when COc1cc(NC(=O)N2C=CC(=O)C[C@H]2c2cccc(F)c2)ccc1C [Compound 70, (S)-2-(3-Fluoro-phenyl)-4-oxo-3,4-dihydro-2H-pyridine-1-carboxylic acid (3-methoxy-4-methyl-phenyl)-amide] was run?
A: Its pIC50 is 6.84.

Q: For COc1cc(NC(=O)N2C=CC(=O)C[C@H]2c2ccc(F)cc2)ccc1Cl [Compound 71, (S)-2-(4-Fluoro-phenyl)-4-oxo-3,4-dihydro-2H-pyridine-1-carboxylic acid (4-chloro-3-methoxy-phenyl)-amide], which pIC50 is on record?
A: Its pIC50 is 6.245.

Q: COc1cc(NC(=O)N2C=CC(=O)C[C@H]2c2cccc(F)c2)ccc1Cl [Compound 72, (S)-2-(3-Fluoro-phenyl)-4-oxo-3,4-dihydro-2H-pyridine-1-carboxylic acid (4-chloro-3-methoxy-phenyl)-amide] was tested. Which pIC50 did it give?
A: The pIC50 was 6.295.

Q: With COc1cc(NC(=O)N2C=CC(=O)C[C@H]2c2cccc(F)c2)ccc1F [Compound 73, (S)-2-(3-Fluoro-phenyl)-4-oxo-3,4-dihydro-2H-pyridine-1-carboxylic acid (4-fluoro-3-methoxy-phenyl)-amide] as the compound, how does the pIC50 read?
A: The pIC50 was 6.83.

Q: How did the pIC50 turn out when Cc1cc2ncccc2cc1NC(=O)N1C=CC(=O)C[C@H]1c1ccc(F)cc1 [Compound 74, (S)-2-(4-Fluoro-phenyl)-4-oxo-3,4-dihydro-2H-pyridine-1-carboxylic acid (7-methyl-quinolin-6-yl)-amide] was run?
A: Its pIC50 is 7.35.

Q: How did the pIC50 turn out when COc1cc(Br)c(CNC(=O)N2C=CC(=O)CC2c2ccc(F)cc2)cc1OC (stereo not shown) [Compound 75, 2-(4-Fluoro-phenyl)-4-oxo-3,4-dihydro-2H-pyridine-1-carboxylic acid 2-bromo-4,5-dimethoxy-benzylamide] was run?
A: Its pIC50 is 5.075.

Q: For COc1cc(NC(=O)N2C=CC(=O)C[C@H]2c2ccc(F)cc2)ccc1F [Compound 76, (S)-2-(4-Fluoro-phenyl)-4-oxo-3,4-dihydro-2H-pyridine-1-carboxylic acid (4-fluoro-3-methoxy-phenyl)-amide], which pIC50 is on record?
A: The pIC50 was 6.76.

Q: Cc1cc(Br)c(NC(=O)N2C=CC(=O)C[C@H]2c2ccc(F)cc2)cc1C(=O)OC(C)(C)C [Compound 77, 4-Bromo-5-{[(S)-2-(4-fluoro-phenyl)-4-oxo-3,4-dihydro-2H-pyridine-1-carbonyl]amino}-2-methyl-benzoic acid tert-butyl ester] was tested. Which pIC50 did it give?
A: The pIC50 was 6.67.

Q: For COc1cc(NC(=O)N2C=CC(=O)C[C@H]2c2cc(F)cc(F)c2)c(Br)cc1C [Compound 78, (S)-2-(3,5-Difluoro-phenyl)-4-oxo-3,4-dihydro-2H-pyridine-1-carboxylic acid (2-bromo-5-methoxy-4-methyl-phenyl)-amide], which pIC50 is on record?
A: Its pIC50 is 7.675.
